Laboratory results reported in PubChem BioAssay (NCI).
Several values for one entry are separate records, joined by “and”; a condition that tells them apart may be missing. Equal entries are not always repeated.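 Five concentrations, 48 hours, 96-well plates. GI50 marks 50% less growth. TGI: total growth inhibition.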

Key:
Test in all cases: NCI tumour cell line growth inhibition, 48 h
SNB-78 CNS = system: SNB-78 CNS
KM20L2 colon = system: KM20L2 colon
XF 498 CNS = system: XF 498 CNS
LXFL 529 NSCLC = system: LXFL 529 NSCLC
DMS 114 small cell lung = system: DMS 114 small cell lung
M19-MEL melanoma = system: M19-MEL melanoma
DMS 273 small cell lung = system: DMS 273 small cell lung
P388/ADR leukemia = system: P388/ADR leukemia
SN12K1 renal = system: SN12K1 renal
RXF-631 renal = system: RXF-631 renal
MDA-N = system: MDA-N

Row | SMILES | TGI (SNB-78 CNS) [µM] | TGI (KM20L2 colon) [µM] | TGI (XF 498 CNS) [µM] | TGI (LXFL 529 NSCLC) [µM] | TGI (DMS 114 small cell lung) [µM] | TGI (M19-MEL melanoma) [µM] | TGI (DMS 273 small cell lung) | TGI (MDA-N) | also measured
1 | O=C(NCC(O)CNC(=O)C(F)(F)F)C(F)(F)F | > 100 | > 100 | > 100 | > 100 | > 100 | > 100 | > 100 µM |  | 
2 | COc1cc(O)c2c(c1)C(=O)c1cc3c(c(O)c1C2=O)C(OC1OC(C)C(O)C(O)C1OC)C(OC)C(C)(O)C3=O (configuration not stated) | 16.1 | 6 | 7.13 |  | 5.24 | 1.83 | 3.85 µM |  | TGI (P388/ADR leukemia): 59.6 µM; TGI (SN12K1 renal): 7.14 µM
3 | COc1cc2c(cc1OC)C(=O)Cc1ccc(OC)c(OC)c1CN(C)CC2 | > 100 | > 100 | > 100 | > 100 | > 100 | > 100 | > 100 µM |  | TGI (RXF-631 renal): > 100 µM
4 | O=C1c2ccccc2C(=O)N1C/C=C/CO | > 100 | > 100 |  | > 100 | > 100 | > 100 | > 100 µM |  | 
5 | COc1ccc(OC)c(-c2cc(=O)c3c(OC)c(OC)c(OC)c(OC)c3o2)c1 |  |  |  |  |  |  |  | > 100 µM | 
6 | CSCCOC(=O)C(=[N+]=[N-])c1ccc([N+](=O)[O-])cc1 |  | > 100 | > 100 | > 100 | > 100 |  | > 100 µM |  | 
7 | CN(C)CCOC(c1ccccc1)c1ccccc1 |  |  |  |  |  |  |  | 50.1 µM and > 100 µM | GI50 (MDA-N): 29.4 µM
8 | O=C(NC1C2CC3CC(C2)CC1C3)c1cc(/C=C/c2ccccc2)[nH]c(=S)n1 (configuration not stated) | > 100 | > 100 | > 100 | > 100 | > 100 | > 100 | > 100 µM |  | TGI (RXF-631 renal): > 100 µM
9 | O=C1CC(O)(c2ccccc2)C(c2ccccc2)=C1c1ccccc1 (configuration not stated) | > 100 | > 100 | 73.5 | > 100 | 89.8 | 91.4 | > 100 µM |  | 
10 | COc1ccc2oc(C(=O)O)c3c2c1CCC3 | > 100 | > 100 | > 100 | > 100 | > 100 | > 100 | > 100 µM |  | 
11 | CC1OC(OC2C(CO)OC(O[C@H]3CC[C@@]4(C)C(=CC[C@H]5[C@@H]6C[C@@H]7O[C@]8(CC[C@@H](C)CN8)[C@@H](C)[C@@H]7[C@@]6(C)CC[C@@H]54)C3)C(O)C2O)C(O)C(O)C1O (some centres not stated) | > 100 | > 100 | > 100 | > 100 | > 100 | > 100 | > 100 µM |  | 
12 | Cc1cc2c(c3oc(C4(C)OC4C4OC4C)cc(=O)c13)C(=O)c1c(O)c(C3CC(C)(N(C)C)C(O)C(C)O3)cc(C3CC(N(C)C)C(O)C(C)O3)c1C2=O (configuration not stated) |  |  | 0.00068 | 0.0117 |  |  | 0.000406 µM and 0.00252 µM | 0.000228 µM | GI50 (SNB-78 CNS): 0.000187 µM; GI50 (XF 498 CNS): 0.000187 µM; TGI (RXF-631 renal): 0.123 µM
13 | CCOc1ccccc1NC(=O)CCc1n[nH]c(=S)o1 | > 100 | > 100 | > 100 | > 100 |  | > 100 | > 100 µM |  | 
14 | CCOC(=O)/C(C#N)=C1/C(O)=C(C(=O)OC)C(C(=O)OC)=C1C(=O)OC |  | > 100 |  | > 100 |  | > 100 | > 100 µM |  | 
15 | CC[C@@H]1C[C@H]2CC3c4[nH]c5ccc(O)cc5c4CCN(C2)C31 | > 100 | > 100 | > 100 | > 100 | > 100 | > 100 | > 100 µM |  | TGI (RXF-631 renal): > 100 µM
16 | CC1(C)CCC(C)(C)c2c1ccc(O)c2Cc1c(O)ccc2c1C(C)(C)CCC2(C)C |  |  |  |  |  |  |  | 3.73 µM | 
17 | S=c1nc(Cl)cc2[nH]c(Cl)cn12 |  |  |  |  |  |  |  | 4.56 µM | 
18 | c1ccc2c(c1)[nH]c1c2nc2ncccn21 | > 100 | > 100 | > 100 | > 100 | > 100 | > 100 | > 100 µM |  | TGI (RXF-631 renal): > 100 µM

Row | SMILES | TGI (SNB-78 CNS) [µM] | TGI (KM20L2 colon) [µM] | TGI (XF 498 CNS) [µM] | TGI (LXFL 529 NSCLC) [µM] | TGI (DMS 114 small cell lung) [µM] | TGI (M19-MEL melanoma) [µM] | TGI (DMS 273 small cell lung) | TGI (MDA-N) | also measured
19 | COc1ccc2c(c1OC)OCC(CN(C)C)C2=O (configuration not stated) |  |  |  |  |  |  |  | 32.4 µM | 
20 | O=c1oc2ccc(-n3c(=O)c4ccccc4c4ccccc4c3=O)cc2c2ccccc12 |  |  |  |  |  |  |  | > 100 µM | 
21 | NC1=NCCN1CC(=O)O |  |  |  |  |  |  |  | > 10000 µM | 
22 | CNC(=O)c1cccc2c(Nc3ccc(NS(C)(=O)=O)cc3OC)c3cccc(C)c3nc12 |  | 3.72 | 3.25 | 6.74 | 1.25 | 8.54 | 1.69 µM |  | TGI (P388/ADR leukemia): 1.07 µM; TGI (SN12K1 renal): 1.61 µM
23 | C[n+]1ccc(-c2c3nc(c(-c4cc[n+](C)cc4)c4ccc([n-]4)c(-c4cc[n+](C)cc4)c4nc(c(-c5cc[n+](C)cc5)c5ccc2[n-]5)C=C4)C=C3)cc1.[I-].[Zn+2] | 69.6 | > 100 |  | 43 | 22.6 | 28.3 | > 100 µM |  | GI50 (SNB-78 CNS): 23.3 µM; GI50 (KM20L2 colon): 23.1 µM; GI50 (LXFL 529 NSCLC): 20.1 µM; GI50 (DMS 114 small cell lung): 7.11 µM; GI50 (M19-MEL melanoma): 10.3 µM; GI50 (DMS 273 small cell lung): 33.7 µM; GI50 (RXF-631 renal): 17.1 µM; TGI (RXF-631 renal): 46.8 µM
24 | CC(C)(C)OC(=O)NC(CO)c1cccc(OCc2ccccc2)c1 (configuration not stated) | > 100 | > 100 | > 100 | > 100 | > 100 | > 100 | > 100 µM |  | 
25 | O=c1oc(=O)c2oc3ccccc3oc1=2 |  | > 100 | > 100 | > 100 | > 100 | > 100 | > 100 µM |  | 
26 | CC[C@@]1(O)C(=O)OCc2c1cc1n(c2=O)Cc2c-1nc1cc3c(cc1c2C)OCO3 |  |  |  |  |  |  |  | > 100 µM | 
27 | CSc1ncnc2c1ncn2C1OC(CO)C(O)OC1O (configuration not stated) |  |  |  |  |  |  |  | 27.7 µM | 
28 | S=C(N/N=C(/c1ccccc1)c1ccccn1)N1CCCCCC1 |  |  |  |  |  |  |  | 2.32 µM and 1.72 µM | GI50 (MDA-N): 0.217 µM
29 | N#CS.N=C=S.N=C=S.[Cu+2].[NH2-].[NH2-].[NH2-].[NH2-].c1ccc2ncccc2c1 |  |  |  |  |  |  |  | > 100 µM | GI50 (MDA-N): > 100 µM
30 | O=S(O)CCCSSc1ccccc1 | > 100 | > 100 | > 100 | > 100 | 67.6 | > 100 | > 100 µM |  | 
31 | CC1=C[P+](Cc2ccccc2)(c2ccccc2)CC1 (configuration not stated) | > 100 | > 100 | 78.2 | > 100 | > 100 | > 100 | > 100 µM |  | GI50 (XF 498 CNS): 25 µM
32 | CCCCCCCCCCCCCCCCOP(=O)(O)OP(=O)(O)OCC1OC(n2ccc(N)nc2=O)C(O)C1O (configuration not stated) |  |  |  |  |  |  |  | > 100 µM | 
33 | CCOC(=O)C(C)(C)C(O)C(C)C (configuration not stated) |  |  |  |  |  |  |  | > 100 µM | 
34 | COc1ccc(CNc2nc3cc(N)cc(N)c3nc2-c2ccccc2)cc1 |  |  |  |  |  |  |  | 27.7 µM | GI50 (MDA-N): 14.2 µM
35 | COc1ccc(OC(C(=O)O)c2ccccc2)c2c1CCCC2=O (configuration not stated) | > 100 | > 100 | > 100 | > 100 | > 100 | > 100 | > 100 µM |  | TGI (RXF-631 renal): > 100 µM
